The values that follow come from patent US20250270159A1, “1-(CYCLOBUTANEMETHYLIDENE)-2, 4, 5-TRIMETHOXYBENZENE COMPOUND AND PREPARATION METHOD AND USE THEREOF” (CHENGDU XINRUI TAIKANG TECHNOLOGY CO., LTD., priority 2023, published 2025).

The test system of assay [1] is mouse model of pentylenetetrazole-induced epilepsy. The assay is described as follows: Mouse model of pentylenetetrazole-induced epilepsy (Racine score, seizure rate, latency). Type of assay: in vivo, Kunming (KM) mice. To be noted: for Incubation period (s), Clonic seizure / Incubation period (s), Tonic seizure: no seizure within 30 min recorded as 1800 s; for Seizure grade: pentylenetetrazole 75 mg/kg ip, Racine score within 30 min; for seizure rate, Clonic seizure / seizure rate, Tonic seizure: within 30 min. On the procedure:
Validation of the protective effect of CTMB in a mouse model of pentylenetetrazole-induced epilepsy. • (1) Experimental animals: specific pathogen free (SPF) adult male Kunming (KM) mice with a weight of 30-35 g. • (2) Animal grouping: the test mice were randomly divided into […], namely, saline group, low-dose CTMB group (a dose of 50 mg/kg, CTMB-L), middle-dose CTMB group (a dose of 75 mg/kg, CTMB-M), high-dose CTMB group (a dose of 100 mg/kg, CTMB-H), 10 mice in each group, and each group was administered by intraperitoneal injection. • (3) Evaluation methods and results:
After a period of drug administration, mice in each group were injected intraperitoneally with pentylenetetrazole of the epilepsy modeling drug with a dose of 75 mg/kg, and clonic seizures and tonic seizures were used as evaluation indexes. Racine scores as well as the seizure rate and latency period of clonic seizures (Racine scores of 1-3) and tonic seizures (Racine scores of 4-5) were observed and recorded for each group of mice within 30 min. Grading scale of Racine scores are as follows. Grade 0 represents normal nonepileptic activity; grade 1 represents wet-dog-like shaking or scratching; grade 2 represents head nodding or tail wagging; grade 3 represents stretching of one forelimb or clonus of one limb; grade 4 represents multiple limb clonus or tonicity; grade 5 represents falls and generalized tonic clonic seizures. If no seizure occurs in the mouse within 30 min, the latency period was recorded as 1800 s.

Assay [2] has as its system blood-brain barrier permeability, traumatic brain injury (TBI) rats. Kind of assay: Blood-brain barrier permeability test (Evans blue) in TBI rats. Type of assay: in vivo, SD rats. Particulars: 30 mg/kg ip 2 h after TBI; 24 h after administration; FIG. 2. On the procedure: The experimental grouping and drug administration plan were as follows. • Sham operation group (Group P): saline was given with the same volume as in the CTMB group; • Model group (T group): a blank emulsion was given with the same volume as in the CTMB group; • Medium dose group (Group M): a dose of 30 mg/kg of CTMB emulsion injection was given.
After 2 h of traumatic brain injury (TBI) modeling, the rats in each group were administered with intraperitoneal injection. After 24 h of the administration, 4% Evans blue solution (2.5 mL/kg) was injected into the right tail vein of the rats, and after 1 h, the rats were deeply anesthetized. The rats were perfused with 100 mL of saline through the heart, the brains were rapidly severed and removed and were immediately divided into the left hemisphere, the right hemisphere, the cerebellum, and the brain stem. The brain tissues were weighed to wet weight, soaked in 10 times volume of pure formamide, incubated at 60° C. for 48 h, and centrifuged at 25° C. and 10000 rpm/min for 30 min. The supernatant was aspirated to detect the Evans blue dye by UV spectrophotometry at 622 nm and a standard curve was plotted for quantification, and the final results were shown as Evans blue content per gram of brain tissue (μg/g).

Assay [3] deals with neurons in the substantia nigra region of the midbrain of PD mice. The assay is described as follows: Niehl's staining, number of neuronal Niehl's bodies in substantia nigra of PD mice. In kind it is in vivo, C57 mice. To be noted: Group D, CTMB 20 mg/kg ip, after 4 weeks of administration. On the procedure: (§1) The mice were randomly divided into a sham operation group (group S, given a blank emulsion with a volume equal to that of the administered group), a model group (group M, given a blank emulsion with a volume equal to that of the administered group), a CTMB group (20 mg/kg, group D), and a levodopa group (levodopa: benserazide hydrochloride=4:1, 12 mg/kg, group L), each group included 10-12 mice, and all of them were administered intraperitoneally.
(§2) After completing the evaluation of motor function after 4 weeks of drug administration, the mice were deeply anesthetized, perfused with 20 mL of saline and 20 mL of 4% paraformaldehyde via the heart, and the brains were rapidly severed and extracted from the head, which were then preserved and fixed in 4% paraformaldehyde for 72 h after removal, and then embedded with paraffin to prepare the slices with a thickness of 4 μm for subsequent pathological and histological studies.
Niehl's staining was used to identify Niehl's bodies in neuronal cells.

For assay [4], the system named is Tyrosine hydroxylase (TH) protein expression. The assay is described as follows: TH protein expression by immunohistochemistry in substantia nigra of PD mice. Type of assay: in vivo, C57 mice. Particulars: Group D, CTMB 20 mg/kg ip, after 4 weeks of administration. Here is the method:
as §1, §2
Tyrosine hydroxylase (TH) protein expression was detected by immunohistochemistry. […]

Marks after values point to notes of the source that are not given here.

With `COc1cc(OC)c(OC)cc1C=C1CCC1` [CTMB, 1-(cyclobutylidenemethyl)-2,4,5-trimethoxybenzene], in assay [1] (CTMB-H 100 mg/kg ip), the “Incubation period (s), Clonic seizure” value amounted to 1549.9 ± 537.1 s; the “Incubation period (s), Tonic seizure” value is 1800.0 ± 0.0 s; the Seizure grade worked out at 0.2 ± 0.4; the “seizure rate, Clonic seizure” value is on record as 20%***. Further, the “seizure rate, Tonic seizure” value in assay [1] (CTMB-H 100 mg/kg ip) was determined as 0%***. Also, in assay [1] (CTMB-L 50 mg/kg ip), the “Incubation period (s), Clonic seizure” value turned out to be 588.9 ± 657.6 s; the “Incubation period (s), Tonic seizure” value is 1000.8 ± 700.7 s; the Seizure grade amounted to 4.1 ± 1.5; the “seizure rate, Clonic seizure” value worked out at 90%. Besides, the “seizure rate, Tonic seizure” value in assay [1] (CTMB-L 50 mg/kg ip) is reported as 70%. Moreover, in assay [1] (CTMB-M 75 mg/kg ip), the “Incubation period (s), Tonic seizure” value is given as 1553.5 ± 400.4 s; the Seizure grade was found to be 1.8 ± 1.3; the “seizure rate, Clonic seizure” value was found to be 50%*; the “seizure rate, Tonic seizure” value is reported as 30%**. In addition, the “Evans blue exudation (content per gram of brain tissue)” value in assay [2] is listed as “significantly reduces Evans blue exudation”. Moreover, in assay [3], the “Number of Niehl's bodies” value worked out at 55.5 ± 4.0. Moreover, the “TH-positive neurons (a percentage of TH-positive neurons to uninjured side, %)” value in assay [4] is 39.9 ± 12.1^###,***^, && %.
